Reference: patent US8163700B2, “Inhibitors of myelin-associated glycoprotein (MAG) activity for regulating neural growth and regeneration” (Research Foundation of City University of New York, priority 2002, dated 2012)
Where a chain is given by its changes, count along the chain named. In names and notes the source's numbering stands. Entries after “also recorded” stand apart in the source; their conditions may differ.

How the values were obtained:
[1] = test system: cerebellar neurons on CHO cells expressing MAG; assay: Neurite outgrowth on MAG-expressing CHO cells in the presence of MAG peptides (FIGS. 4 and 5); type: cell-based; details: for effect on the ability of MAG-expressing cells to inhibit neurite outgrowth / neurite length relative to neurites extended without peptide or with MAG Igd4 peptides: peptide 15 μM, overnight, FIG. 4; for neurite length relative to neurites extended without peptide or with MAG Igd4 peptides: neurons on MAG-expressing cells; for attenuation of inhibition of neurite outgrowth by MAG: peptide 20 μM, 18 hours, FIG. 5
Procedure: FIG. 4 Inhibition of neurite outgrowth from cerebellar neurons by MAG; peptides Cerebellar neurons were isolated (Example 1) and grown overnight on a monolayer of control-transfected CHO cells (not shown) or CHO cells expressing MAG in the absence (striped bar) or the presence (grey bars) of MAG peptides (15 μM) derived from MAG Ig-like domain 4 or 5. Neurons were stained for GAP-43 antigen and neurite length was measured. Results are shown as number of neurons in each treatment having neurites longer than two times the length of the cell body.
FIG. 5 Inhibition of neurite outgrowth from cerebellar neurons by MAG peptides Cerebellar neurons were isolated (Example 1) and grown for 18 hrs on a monolayer of control-transfected CHO cells (R2) or CHO cells expressing MAG in the absence of a peptide (MAG) or in the presence of a peptide derived from sialoadhesin Ig-like domain 5 (non-MAG “control peptide”) or a MAG peptide (M433 or M462 at 20 μM) derived from MAG Ig-like domain 5. Neurons were stained for GAP-43 antigen and neurite length was measured and the average length was calculated for 180-200 neurons (+/−SEM).
Confluent monolayers of control, MAG-, truncated MAG- or chimeric MAG-Sn-expressing CHO cells were established over a 24-hour (h) period in individual chambers of an 8-well tissue culture slide (Lab-Tek). Co-cultures were established as described previously (Doherty et al., Nature, 343, pp. 464-66 (1990); Neuron, 5, pp. 209-19 (1990); Mukhopadhyay et al., Neuron, 13, pp. 757-67 (1994)) by adding approximately 5000 cerebellar neurons to the CHO monolayers. Culture medium was SATO containing 2% FCS. After periods of time as indicated, the co-cultures were fixed for 30 minutes (min) with 4% paraformaldehyde and permeabilized with ice-cold methanol for 2 min. The cells were then blocked for 30 min with DMEM containing 10% FCS and incubated for 2 h with a rabbit polyclonal antibody against the neuronal marker GAP43 (1:4000). Cells were washed three times with PBS-BSA (2%) and then incubated for 30 min at room temperature with a biotinylated donkey anti-rabbit Ig (1:300, Amersham), washed three times, and incubated with streptavidin-conjugated Texas Red (1:300, Amersham) for 30 min. After three more washes, the slides were mounted in Permfluor (Baxter) and viewed with a Zeiss fluorescent microscope. The length of the longest neurite for each GAP43-positive neuron was determined using the Biological Detection System image analysis program (Pittsburgh).
Peptides corresponding to amino acid residues […] of MAG (MAG(343-371)), amino acid residues 363-397 (MAG(363-397)), amino acid residues 394-428 (MAG(394-428)), amino acid residues 422-451 (MAG(422-451)), amino acid residues 442-471 (MAG(442-471)), and amino acid residues 461-498 (MAG(461-498)) were synthesized. Peptides were obtained from SynPep Corp. (Dublin, Calif.). MAG(343-371), MAG(363-397) and MAG(394-428) correspond to amino acid residues from the Ig4 domain of MAG. MAG(422-451), MAG(442-471) and MAG(461-498) corresponds to amino acid residues from the Ig5 domain of MAG. […] Results are shown in FIG. 4 (and are represented as number of neurons with processes longer than 2-times the cell diameter). […] Results are shown in FIG. 5 (and are represented as average neurite length for 180-200 neurons).

cerebellar neurons = assay: Neurite outgrowth on L1-Fc substrate in the presence of soluble MAG-Fc chimeras (FIG. 3); type: cell-based; details: soluble protein 25 μg/ml, 18 hours, compared to control chimera
Procedure: FIG. 3 Inhibition of neurite outgrowth from cerebellar neurons by MAG-Fc Derivatives Cerebellar neurons were isolated (Example 1) and plated onto a growth promoting substrate of L1 protein (Example 4). A control MUC-Fc fusion (clear bar), wild-type MAG-Fc (striped bar) and MAG-Fc derivatives having point mutations in MAG Ig-like domains 4 or 5 (grey bars) were constructed (Example 4) and added in soluble form to neurons (25 μg/ml). After 18 hours, cultures were fixed and stained for GAP-43 antigen. Neurite length was measured and the average length was calculated for 180-200 neurons (+/−SEM).
Individual wells of an eight-chamber tissue culture plastic slide (Lab-Tek, Nuc. Inc.) were incubated with 0.3 nil of 16.6 μg/ml poly-1-lysine in sterile water for at least one hour under sterile conditions. Each well was washed twice with 400 μl of a 0.1M sodium bicarbonate solution, pH 9.6, and then received 0.3 ml of 0.1M sodium bicarbonate solution, pH 9.6, containing 15 μg/ml goat anti-human IgG (Fc-specific) monoclonal antibody (Sigma). The wells were incubated for 2 hours (h) at 37° C., and washed three times with 0.4 ml of ice-cold DMEM. Each well then received 0.3 nil of DMEM containing 40 μg/ml of L1-Fc and was incubated for 2-4 h at 37° C. The welts were washed twice DMEM.
Cerebellar neurons (post-natal days 2-7) were dissociated by trypsinization as described in Example 1, except that the dissociated neurons were resuspended in 5 ml of SATO medium containing 2% dialyzed FBS. To an individual well coated with a monolayer of L1-Fc as described above, 5.0×10^4 cerebellar neurons were added, followed by addition of one of the mutant MAG-Fc or MUC18-Fc chimeric soluble protein described above at a concentration of 25 μg/ml. Neurons were cultured for 18 hours at 37° C., and then fixed and stained for GAP43 essentially as described in Example 2. Neurite length was measured for 180-200 neurons.

MAG(422-451): peptide of MAG amino acid residues 422-451 (SEQ ID NO: 15) (AAARDTVQCLCVVKSNPEPSVAFELPSRNV)
effect on the ability of MAG-expressing cells to inhibit neurite outgrowth [1]: strongly attenuated inhibition by MAG | neurite length relative to neurites extended without peptide or with MAG Igd4 peptides [1]: at least twice as long

MAG(461-498): 38 amino acid peptide of MAG residues 461-498 (SEQ ID NO: 23) (VYSERSGLLLTSILTLRGQAQAPPRVICTSRNLYGTQS)
effect on the ability of MAG-expressing cells to inhibit neurite outgrowth [1]: no apparent effect on inhibition of neurite outgrowth by MAG; also recorded: does not reduce the ability of wild-type MAG to inhibit neurite outgrowth

M462: peptide of MAG amino acid residues 462-486 (SEQ ID NO: 24) (YSERSGLLLTSILTLRGQAQAPPRV)
attenuation of inhibition of neurite outgrowth by MAG [1]: even more strongly attenuated inhibition by MAG

M433: peptide of MAG amino acid residues 433-457 (SEQ ID NO: 20) (VVKSNPEPSVAFELPSRNVTVNETE)
attenuation of inhibition of neurite outgrowth by MAG [1]: even more strongly attenuated inhibition by MAG

MAG(442-471): peptide of MAG amino acid residues 442-471 (SEQ ID NO: 16) (VAFELPSRNVTVNETEREFVYSERSGLLLT)
effect on the ability of MAG-expressing cells to inhibit neurite outgrowth [1]: strongly attenuated inhibition by MAG | neurite length relative to neurites extended without peptide or with MAG Igd4 peptides [1]: at least twice as long

B1: MAG(K435E)-Fc: murine MAG-Fc with point mutation K435E, Ig domain 5 (protein, listed as Mus sp.)
chain: MIFLATLPLFWIMISASRGGHWGAWMPSTISAFEGTCVSIPCRFDFPDELRPAVVHGVWYFNSPYPKNYPPVVFKSRTQVVHESFQGRSRLLGDLGLRNCTLLLSTLSPELGGKYYFRGDLGGYNQYTFSEHSVLDIVNTPNIVVPPEVVAGTEVEVSCMVPDNCPELRPELSWLGHEGLGEPTVLGRLREDEGTWVQVSLLHFVPTREANGHRLGCQAAFPNTTLQFEGYASLDVKYPPVIVEMNSSVEAIEGSHVSLLCGADSNPPPLLTWMRDGMVLREAVAKSLYLDLEEVTPGEDGVYACLAENAYGQDNRTVELSVMYAPWKPTVNGTVVAVEGETVSILCSTQSNPDPILTIFKEKQILATVIYESQLQLELPAVTPEDDGEYWCVAENQYGQRATAFNLSVEFAPIILLESHCAAARDTVQCLCVVESNPEPSVAFELPSRNVTVNETEREFVYSERSGLLLTSILTIRGQAQAPPRVICTSRNLYGTQSLELPFQGAHRLMWAKIGPVGAVVAFAILIAIVCYITQTRRKKNVTESSSFSGGDNPHVLYSPEFRISGAPDKYESREVSTRDCH
modifications: Fc fusion
inhibition of neurite outgrowth (in words) (cerebellar neurons): none

B2: MAG(E445K)-Fc: murine MAG-Fc with point mutation E445K, Ig domain 5 (protein, listed as Mus sp.)
chain: B1 chain with E435K, E445K
modifications: Fc fusion
inhibition of neurite outgrowth (in words) (cerebellar neurons): none

B3: MAG(R485D)-Fc: murine MAG-Fc with point mutation R485D, Ig domain 5 (protein, listed as Mus sp.)
chain: B1 chain with E435K, R485D
modifications: Fc fusion
inhibition of neurite outgrowth (in words) (cerebellar neurons): none

B4: MAG(R491E)-Fc: murine MAG-Fc with point mutation R491E, Ig domain 5/TM (protein, UniProt P20917 20-516, looked up, variant R491E)
extracellular domain: GHWGAWMPSTISAFEGTCVSIPCRFDFPDELRPAVVHGVWYFNSPYPKNYPPVVFKSRTQVVHESFQGRSRLLGDLGLRNCTLLLSTLSPELGGKYYFRGDLGGYNQYTFSEHSVLDIVNTPNIVVPPEVVAGTEVEVSCMVPDNCPELRPELSWLGHEGLGEPTVLGRLREDEGTWVQVSLLHFVPTREANGHRLGCQAAFPNTTLQFEGYASLDVKYPPVIVEMNSSVEAIEGSHVSLLCGADSNPPPLLTWMRDGMVLREAVAKSLYLDLEEVTPGEDGVYACLAENAYGQDNRTVELSVMYAPWKPTVNGTVVAVEGETVSILCSTQSNPDPILTIFKEKQILATVIYESQLQLELPAVTPEDDGEYWCVAENQYGQRATAFNLSVEFAPIILLESHCAAARDTVQCLCVVKSNPEPSVAFELPSRNVTVNETEREFVYSERSGLLLTSILTIRGQAQAPPRVICTSENLYGTQSLELPFQGAHRLMWAKIGP
modifications: extracellular domain Fc fusion
notes: murine MAG-Fc with point mutation R491E, Ig domain 5/TM
inhibition of neurite outgrowth (in words) (cerebellar neurons): none
